This passage reports melting point results from patent US9447100B2, “Substituted pyrazolo[1,5-A] pyrimidines as calcium receptor modulating agents” (Takeda Pharmaceutical Company Limited, priority 2002, dated 2016).

The structures appear in SMILES notation. Counter-ions that a name gives are not always drawn.

As a reminder, the melting point is the temperature of the solid-liquid transition. `CCC(CC)(NC(=O)c1c(C)nn2c1NC(c1ccccc1)CC2(C)C)c1ccc(SC)cc1` (stereo not drawn) [Example 833, N-(1-ethyl-1-(4-(methylthio)phenyl)propyl)-2,7,7-trimethyl-5-phenyl-4,5,6,7-tetrahydropyrazolo[1,5-a]pyrimidine-3-carboxamide] had a melting point of 149 to 150 °C. For the molecule `CCC(CC)(NC(=O)c1cnn2c1NC(c1ccccc1OC)CC2(C)C)c1ccc(C)cc1` (stereo not drawn) (as salt: HCl) [Example 964, N-[1-ethyl-1-(4-methylphenyl)propyl]-5-(2-methoxyphenyl)-7,7-dimethyl-4,5,6,7-tetrahydropyrazolo[1,5-a]pyrimidine-3-carboxamide], the melting point was 158 to 159 °C. As to `COc1ccccc1C1CC(C(F)(F)F)n2ncc(C(=O)NC34CC5CC(CC(C5)C3)C4)c2N1` (stereo not drawn) [Example 279, N-(1-adamantyl)-5-(2-methoxyphenyl)-7-(trifluoromethyl)-4,5,6,7-tetrahydropyrazolo[1,5-a]pyrimidine-3-carboxamide], the melting point lay in the range of 238 to 239 °C. With `CCC(NC(=O)c1cnn2c1NC(c1ccccc1)CC2C(F)(F)F)c1ccccc1Br` (stereo not drawn) [Example 401, N-(1-(2-bromophenyl)propyl)-5-phenyl-7-(trifluoromethyl)-4,5,6,7-tetrahydropyrazolo[1,5-a]pyrimidine-3-carboxamide] the figure was 236 to 237 °C. As to `CCC(CC)(NC(=O)c1cnn2c1NC(c1ccccc1)CC2(C)C)c1ccc(CO)cc1` (stereo not drawn) [Example 739, N-(1-ethyl-1-(4-(hydroxymethyl)phenyl)propyl)-7,7-dimethyl-5-phenyl-4,5,6,7-tetrahydropyrazolo[1,5-a]pyrimidine-3-carboxamide], the melting point lay within 178 to 179 °C. On to `CCC(CC)(NC(=O)c1cnn2c1NC(c1ccccc1)CC2(C)C)c1ccc(Cl)c(Cl)c1` (stereo not drawn) [Example 666, N-(1-(3,4-dichlorophenyl)-1-ethylpropyl)-7,7-dimethyl-5-phenyl-4,5,6,7-tetrahydropyrazolo[1,5-a]pyrimidine-3-carboxamide], for which the melting point is 156 to 157 °C.

With `CNC(=O)c1cnn2c1NC(c1ccccc1)CC2(C)C` (stereo not drawn) [Example 768, N,7,7-trimethyl-5-phenyl-4,5,6,7-tetrahydropyrazolo[1,5-a]pyrimidine-3-carboxamide], the melting point was in the range of 116 to 117 °C. With `CCC(CC)(NC(=O)c1c(C)nn2c1N[C@@H](c1ccccc1)CC2(C)C)c1ccc(Cl)c(C)c1` (as salt: HCl) [Example 1068, (5R)-N-(1-(4-chloro-3-methylphenyl)-1-ethylpropyl)-2,7,7-trimethyl-5-phenyl-4,5,6,7-tetrahydropyrazolo[1,5-a]pyrimidine-3-carboxamide] the figure was 150 to 151 °C; with `COc1ccc(C2CC(C)(C)n3nc(C)c(C(=O)O)c3N2)cc1` (stereo not drawn) [Example 950, 5-(4-methoxyphenyl)-2,7,7-trimethyl-4,5,6,7-tetrahydropyrazolo[1,5-a]pyrimidine-3-carboxylic acid], 178 to 179 °C; with `O=C(NC1(C(=O)N2CCOCC2)CCCCC1)c1cnn2c1N[C@H](c1ccccc1)C[C@@H]2C(F)(F)F` [Example 370], 290 to 291 °C.

On to `CCC1(NC(=O)c2cnn3c2NC(c2ccccc2)CC3(C)C)CCS(=O)(=O)CC1` (stereo not drawn) [Example 617, N-(4-ethyl-1,1-dioxidotetrahydro-2H-thiopyran-4-yl)-7,7-dimethyl-5-phenyl-4,5,6,7-tetrahydropyrazolo[1,5-a]pyrimidine-3-carboxamide], for which the melting point was 155 to 156 °C. Turning to `CCC(CC)(NC(=O)c1c(C)nn2c1NC(c1ccccc1)CC2(C)C)c1ccc(C(C)=O)cc1` (stereo not drawn) [Example 977, N-(1-(4-acetylphenyl)-1-ethylpropyl)-2,7,7-trimethyl-5-phenyl-4,5,6,7-tetrahydropyrazolo[1,5-a]pyrimidine-3-carboxamide], the melting point lay in the range of 200 to 202 °C.
